Legend:
[1] = tested on: Candida albicans clinical strain B3; experiment: antifungal activity against MDR fungal strains and parents; type: cell-based; conditions: C. albicans B3, fluconazole sensitive, parent strain for B4
Method in brief: (§1)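 Standard yeast broth dilution (M27-A2) in pH 7.0 buffered RPMI 1640. A531 of cell suspensions recorded and related graphically to compound concentration.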

[2] = tested on: Candida albicans strain 5674 (CaCdr1p, CaCdr2p); experiment: as above; type: cell-based; conditions: C. albicans 5674 (CaCdr1p, CaCdr2p)
Method in brief: as §1

[3] = tested on: Candida albicans clinical strain Gu4; experiment: as above; type: cell-based; conditions: C. albicans Gu4, fluconazole sensitive, parent strain for Gu5
Method in brief: as §1

[4] = tested on: Candida albicans clinical strain F2; experiment: as above; type: cell-based; conditions: C. albicans F2, fluconazole sensitive, parent strain for F5
Method in brief: as §1

[5] = tested on: Candida albicans clinical strain Gu5 (CaCdr1p, CaCdr2p); experiment: as above; type: cell-based; conditions: C. albicans Gu5 (CaCdr1p, CaCdr2p), fluconazole-resistant
Method in brief: as §1

[6] = tested on: Candida albicans strain STY31; experiment: as above; type: cell-based; conditions: C. albicans STY31, 5674 derivative, deletion of CDR1 and CDR2
Method in brief: as §1

[7] = tested on: Candida albicans clinical strain F5 (CaMdr1p); experiment: as above; type: cell-based; conditions: C. albicans F5 (CaMdr1p), fluconazole-resistant
Method in brief: as §1

[8] = tested on: Candida albicans clinical strain B4 (CaMdr1p); experiment: as above; type: cell-based; conditions: C. albicans B4 (CaMdr1p), fluconazole-resistant
Method in brief: as §1

[9] = tested on: Candida albicans strain STY7 (CaCdr1p); experiment: as above; type: cell-based; conditions: C. albicans STY7 (CaCdr1p), 5674 derivative, deletion of CDR2
Method in brief: as §1

[10] = tested on: LLC-PK1 cells; experiment: cytotoxic activity against mammalian cells in tissue culture (MTT); type: cell-based, pig
[11] = tested on: Candida pseudotropicalis KKP 324; experiment: antifungal activity in vitro, broader spectrum; type: cell-based
Method in brief: (§2)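 Broth serial dilution in RPMI 1640 buffered to pH 7.0, following the NCCLS M27-A2 yeast reference method. Growth was read as optical density at 531 nm, and A531 was plotted against compound concentration.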

[12] = tested on: Candida arborea KKP 319; experiment: antifungal activity in vitro, broader spectrum; type: cell-based
Method in brief: as §2

[13] = tested on: Candida quilliermondii DSM 11947; experiment: antifungal activity in vitro, broader spectrum; type: cell-based
Method in brief: as §2

[14] = tested on: Candida lipolytica KKP 322; experiment: antifungal activity in vitro, broader spectrum; type: cell-based
Method in brief: as §2

[15] = tested on: Trichoderma viride LOCK E159; experiment: antifungal activity in vitro, broader spectrum; type: cell-based
Method in brief: as §2

[16] = tested on: Aspergillus niger LOCK E201; experiment: antifungal activity in vitro, broader spectrum; type: cell-based
Method in brief: as §2

[17] = tested on: Candida stellatoidea CBS 1905; experiment: antifungal activity in vitro, broader spectrum; type: cell-based
Method in brief: as §2

[18] = tested on: Candida albicans SC 5314; experiment: antifungal activity in vitro, broader spectrum; type: cell-based
Method in brief: as §2

[19] = tested on: Candida dubliniensis CBS 7987; experiment: antifungal activity in vitro, broader spectrum; type: cell-based
Method in brief: as §2

[20] = tested on: Candida parapsilosis DSM 5784; experiment: antifungal activity in vitro, broader spectrum; type: cell-based
Method in brief: as §2

[21] = tested on: Candida glabrata DSM 11226; experiment: antifungal activity in vitro, serial dilution in RPMI 1640; type: cell-based
Method in brief: as §1

[22] = tested on: Candida albicans ATCC 10231; experiment: as above; type: cell-based
Method in brief: as §1

[23] = tested on: Saccharomyces cerevisiae ATCC 9763; experiment: as above; type: cell-based; conditions: RPMI 1640, pH 7.0; for Antifungal activity IC50: Saccharomyces cerevisiae ATCC 9763 (first head over MIC and IC50); for Antifungal activity MIC: Saccharomyces cerevisiae ATCC 9763
Method in brief: as §1

[24] = tested on: Candida lusitaniae DSM 70102; experiment: as above; type: cell-based
Method in brief: as §1

[25] = tested on: Candida tropicalis KKP 334; experiment: as above; type: cell-based
Method in brief: as §1

[26] = tested on: Candida krusei DSM 6128; experiment: as above; type: cell-based
Method in brief: as §1

[27] = tested on: Human erythrocytes; experiment: hemotoxicity determination (hemolytic activity); type: cell-based
Method in brief: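 Human erythrocytes (2×10^7/ml in saline) were incubated with serially diluted compound for 30 min at 37 °C and then centrifuged. Released haemoglobin was read at A540 against a 0.1% Triton X-100 full-lysis control. EH50 is the interpolated concentration giving 50% of the control A540.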

[28] = tested on: HepG2 cells; experiment: cytotoxic activity against mammalian cells in tissue culture (MTT); type: cell-based, human
[29] = tested on: CCRF-CEM cells; experiment: as above; type: cell-based, human

Compound | Antifungal activity MIC [1] | Antifungal activity MIC [2] | Antifungal activity MIC [3] | Antifungal activity MIC [4] | Antifungal activity MIC [5] | Antifungal activity MIC [6] | Antifungal activity MIC [7] | Antifungal activity MIC [8] | Antifungal activity MIC [9] | IC50 (cytotoxic activity) [10] | Antifungal activity MIC [11] | Antifungal activity MIC [12] | Antifungal activity MIC [13] | Antifungal activity MIC [14] | Antifungal activity MIC [15] | Antifungal activity MIC [16] | Antifungal activity MIC [17] | Antifungal activity MIC [18] | Antifungal activity MIC [19] | Antifungal activity MIC [20] | further results
C[C@@H]1[C@H](O)[C@@H](C)/C=C/C=C/C=C/C=C/C=C/C=C/C=C/[C@H](O[C@@H]2O[C@H](C)[C@@H](O)[C@H](NC(=O)[C@H](N)Cc3cccnc3)[C@@H]2O)C[C@@H]2O[C@](O)(C[C@@H](O)C[C@@H](O)[C@H](O)CC[C@@H](O)C[C@@H](O)CC(=O)O[C@H]1C)C[C@H](O)[C@H]2C(=O)O [Compound A36, N-D-β-(pyridin-3-yl)alanylamphotericin B] | 0.5 µg/mL | 0.5 µg/mL | 1 µg/mL | 4 µg/mL | 4 µg/mL | 0.25 µg/mL | 4 µg/mL | 4 µg/mL | 0.5 µg/mL | >100 µg/mL | 1 µg/mL | 4 µg/mL | 1 µg/mL | 2 µg/mL | 4 µg/mL | 0.5 µg/mL | 2 µg/mL | 1 µg/mL | 1 µg/mL | 2 µg/mL | Antifungal activity MIC [21]: 4 µg/mL; Antifungal activity MIC [22]: 2 µg/mL; Antifungal activity IC50 [23]: 0.53 µg/mL; Antifungal activity MIC [23]: 1 µg/mL; Antifungal activity MIC [24]: 2 µg/mL; Antifungal activity MIC [25]: 2 µg/mL; Antifungal activity MIC [26]: 4 µg/mL; Hemotoxi EH50 [27]: >100 µg/mL; IC50 (cytotoxic activity) [28]: >100 µg/mL; IC50 (cytotoxic activity) [29]: >100 µg/mL
C[C@@H]1[C@H](O)[C@@H](C)/C=C/C=C/C=C/C=C/C=C/C=C/C=C/[C@H](O[C@@H]2O[C@H](C)[C@@H](O)[C@H](NC(=O)[C@@H](N)Cc3ccc([N+](=O)[O-])cc3)[C@@H]2O)C[C@@H]2O[C@](O)(C[C@@H](O)C[C@@H](O)[C@H](O)CC[C@@H](O)C[C@@H](O)CC(=O)O[C@H]1C)C[C@H](O)[C@H]2C(=O)O [Compound A33, N-L-p-nitrophenylalanylamphotericin B] | 0.5 µg/mL | 2 µg/mL | 1 µg/mL | 4 µg/mL | 1 µg/mL | 0.5 µg/mL | 8 µg/mL | 1 µg/mL | 1 µg/mL | >100 µg/mL | 1 µg/mL | 2 µg/mL | 1 µg/mL | 1 µg/mL | 4 µg/mL | 1 µg/mL | 1 µg/mL | 1 µg/mL | 1 µg/mL | 1 µg/mL | Antifungal activity MIC [21]: 4 µg/mL; Antifungal activity MIC [22]: 2 µg/mL; Antifungal activity IC50 [23]: 1.39 µg/mL; Antifungal activity MIC [23]: 2 µg/mL; Antifungal activity MIC [24]: 2 µg/mL; Antifungal activity MIC [25]: 4 µg/mL; Antifungal activity MIC [26]: 4 µg/mL; Hemotoxi EH50 [27]: >100 µg/mL; IC50 (cytotoxic activity) [28]: >100 µg/mL; IC50 (cytotoxic activity) [29]: >100 µg/mL
N-methyl-L-(O^γ-tert-butyl)glutamylamphotericin B [Compound A34] | 1 µg/mL | 4 µg/mL | 1 µg/mL | 4 µg/mL | 2 µg/mL | 2 µg/mL | 8 µg/mL | 2 µg/mL | 2 µg/mL | >100 µg/mL | 1 µg/mL | 4 µg/mL | 2 µg/mL | 1 µg/mL | 4 µg/mL | 2 µg/mL | 1 µg/mL | 1 µg/mL | 1 µg/mL | 1 µg/mL | Antifungal activity MIC [21]: 4 µg/mL; Antifungal activity MIC [22]: 4 µg/mL; Antifungal activity IC50 [23]: 1.22 µg/mL; Antifungal activity MIC [23]: 2 µg/mL; Antifungal activity MIC [24]: 2 µg/mL; Antifungal activity MIC [25]: 4 µg/mL; Antifungal activity MIC [26]: 4 µg/mL; Hemotoxi EH50 [27]: >100 µg/mL; IC50 (cytotoxic activity) [28]: >100 µg/mL; IC50 (cytotoxic activity) [29]: >100 µg/mL
